Reference: ChEMBL document CHEMBL6109096, “Synthesis, anti-allergic rhinitis evaluation and mechanism investigation of novel 1,2,4-triazole-enamides as CB1 R antagonist” (Eur J Med Chem, 2025)

System: RAW264.7
Test: Cytotoxicity against mouse RAW264.7 cells assessed as reduction in cell viability at 10 uM incubated for 24 hrs by CCK-8 assay
Format: toxicity, cell-based
Settings: raw264.7, 24 h

Row | Structure (SMILES) | Activity
1 | CC(C)c1nc(C(=O)N(C)/C=C\c2ccccc2)nn1-c1ccccc1 | Non-toxic
2 | CN(/C=C\c1ccccc1)C(=O)c1nc(-c2ccc(C(F)(F)F)cc2)n(-c2ccccc2)n1 | Non-toxic
3 | CN(/C=C\c1ccccc1)C(=O)c1nc(-c2ccccc2)n(-c2ccccc2)n1 | Non-toxic
4 | Cc1nc(C(=O)N(C)/C=C\c2ccccc2)nn1-c1ccccc1 | Non-toxic
5 | CN(/C=C\c1ccccc1)C(=O)c1nc(-c2cccs2)n(-c2ccccc2)n1 | Non-toxic
6 | CCc1nc(C(=O)N(C)/C=C\c2ccccc2)nn1-c1ccccc1 | Non-toxic
